These results are taken from patent publication US7094781B2, “Sulfamides and their use as endothelin receptor antagonists” (Actelion Pharmaceuticals Ltd., priority 2000, dated 2006).

SMILES strings stand for the structures. Where only a bound is given, the exact number is not on record here.

Experiment [1] addresses T1, human recombinant ETA receptor (Homo sapiens, UniProt P25101).
T1 construct: expressed in transfected cells; host or cells: CHO cells (microsomal membranes)
T1 sequence (P25101 21-427): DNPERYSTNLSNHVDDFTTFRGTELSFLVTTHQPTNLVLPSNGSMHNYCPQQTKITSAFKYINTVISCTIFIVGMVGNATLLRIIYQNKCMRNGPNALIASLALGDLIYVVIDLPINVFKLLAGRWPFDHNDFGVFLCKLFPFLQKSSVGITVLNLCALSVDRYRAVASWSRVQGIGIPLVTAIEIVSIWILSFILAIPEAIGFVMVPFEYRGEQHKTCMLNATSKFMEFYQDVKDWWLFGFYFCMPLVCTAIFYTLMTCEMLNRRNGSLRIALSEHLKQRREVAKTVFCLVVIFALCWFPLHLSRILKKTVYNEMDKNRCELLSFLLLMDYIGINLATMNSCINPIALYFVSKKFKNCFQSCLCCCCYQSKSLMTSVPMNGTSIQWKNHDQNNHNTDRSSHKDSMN
The experiment is described as follows: Inhibition of [125I]ET-1 binding to membranes from CHO cells carrying human ETA receptors.

Experiment [2] deals with T2, human recombinant ETB receptor (Homo sapiens, UniProt P24530).
T2 construct: expressed in transfected cells; host or cells: CHO cells (microsomal membranes)
T2 sequence (P24530 27-442): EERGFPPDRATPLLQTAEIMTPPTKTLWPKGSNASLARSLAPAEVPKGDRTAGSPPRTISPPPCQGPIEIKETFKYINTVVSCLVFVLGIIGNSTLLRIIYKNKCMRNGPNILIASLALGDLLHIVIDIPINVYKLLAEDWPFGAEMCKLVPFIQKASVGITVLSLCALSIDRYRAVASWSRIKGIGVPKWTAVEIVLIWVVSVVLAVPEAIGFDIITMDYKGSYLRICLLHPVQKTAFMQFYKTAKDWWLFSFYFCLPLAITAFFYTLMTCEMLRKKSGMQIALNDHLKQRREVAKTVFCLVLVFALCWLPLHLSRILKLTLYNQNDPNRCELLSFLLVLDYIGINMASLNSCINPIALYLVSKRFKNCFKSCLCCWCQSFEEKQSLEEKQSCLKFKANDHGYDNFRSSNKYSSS
The experiment in a line: Inhibition of [125I]ET-1 binding to membranes from CHO cells carrying human ETB receptors.

Broadly, the IC50 is the point on the concentration scale where inhibition reaches its midpoint. Take `COc1ccccc1Oc1c(NS(=O)(=O)NCc2ccc(Cl)cc2)nc(-c2ncccn2)nc1OCCOC(=O)Nc1ccccn1` [Example 57]: the concentration for half-maximal inhibition (IC50) in experiment [1] came to 4.9 nM; in experiment [2], 35.8 nM.

For `COc1cnc(OCCOc2nc(-c3ncccn3)nc(NS(=O)(=O)NCc3ccco3)c2Oc2ccccc2OC)nc1` [Example 59], the figures for the IC50 in experiment [1] and in experiment [2] were 5.6 nM and 124 nM, respectively.

Turning to `COc1ccccc1Oc1c(NS(=O)(=O)NCc2ccco2)nc(-c2ncccn2)nc1OCCOc1ncc(Br)cn1` [Example 60], the IC50 in experiment [1] came to 3.4 nM; in experiment [2], 232 nM.

`COc1ccccc1Oc1c(NS(=O)(=O)NCc2ccco2)nc(-c2ncccn2)nc1OCCOC(=O)Nc1cnccn1` [Example 61]: the IC50 in experiment [1] is 1.6 nM; in experiment [2], 200 nM.

For the compound `COc1ccccc1Oc1c(NS(=O)(=O)NCc2ccccc2)nc(-c2ccncc2)nc1OCCOc1ncc(SC)cn1` [Example 74], the IC50 is 1.8 nM in experiment [1] and 164 nM in experiment [2].

For the compound `COc1ccccc1Oc1c(NS(=O)(=O)NCc2cccs2)nc(-c2ccncc2)nc1OCCOc1ncc(Br)cn1` [Example 80], the results for the IC50 in experiment [1] and in experiment [2] were 10 nM and above 1000 nM, respectively.

For the compound `COc1ccccc1Oc1c(NS(=O)(=O)NCc2cccs2)nc(-c2ccncc2)nc1OCCOC(=O)Nc1ccccn1` [Example 81], the IC50 in experiment [1] came to 3.6 nM; in experiment [2], 274 nM.

Regarding `COc1ccccc1Oc1c(NS(=O)(=O)NCc2ccccn2)nc(C2CC2)nc1OCCOc1ncc(Br)cn1` [Example 84], the IC50 in experiment [1] amounted to 37 nM; in experiment [2], 574 nM.

As to `COc1cnc(OCCOc2nc(C3CC3)nc(NS(=O)(=O)NCc3ccccc3)c2Oc2ccccc2OC)nc1` [Example 89], the IC50 in experiment [1] stood at 19 nM; in experiment [2], 621 nM.

With `COc1ccccc1Oc1c(NS(=O)(=O)NCc2ccccc2)nc(C2CC2)nc1OCCOc1ncc(SC)cn1` [Example 90], the IC50 was 7.4 nM in experiment [1] and 433 nM in experiment [2].

As for `COc1ccccc1Oc1c(NS(=O)(=O)NCc2ccccc2)nc(C2CC2)nc1OCCOC(=O)Nc1ccccn1` [Example 91], the figures for the IC50 in experiment [1] and in experiment [2] were 2.5 nM and 79 nM, respectively.

Take `COc1ccccc1Oc1c(NS(=O)(=O)NCc2ccccc2)ncnc1OCCOc1ncc(SC)cn1` [Example 97]: the IC50 amounted to 1.55 nM in experiment [1] and 92 nM in experiment [2].

Turning to `COc1ccccc1Oc1c(NS(=O)(=O)NCc2ccccc2)ncnc1OCCOC(=O)Nc1ccccn1` [Example 98], the figures for the IC50 in experiment [1] and in experiment [2] were 2.1 nM and 159 nM, respectively.

As for `COc1cnc(OCCOc2ncnc(NS(=O)(=O)NCc3ccccc3)c2-c2ccc(Br)cc2)nc1` [Example 101], the results for the IC50 in experiment [1] and in experiment [2] were 1.24 nM and 335 nM, respectively.

As for `CCNS(=O)(=O)Nc1ncnc(OCCOc2ncc(SC)cn2)c1-c1ccc(Br)cc1` [Example 105], the IC50 was 0.69 nM in experiment [1] and 203 nM in experiment [2].

`O=S(=O)(NCC1CC1)Nc1ncnc(OCCOc2ncc(Br)cn2)c1-c1ccc(Br)cc1` [Example 107]: the IC50 in experiment [1] amounted to 0.25 nM; in experiment [2], 96 nM.

On to `CSc1cnc(OCCOc2ncnc(NS(=O)(=O)NCC3CC3)c2-c2ccc(Br)cc2)nc1` [Example 108], for which the IC50 in experiment [1] stood at 0.28 nM; in experiment [2], 56 nM.

Turning to `O=S(=O)(NCc1ccccc1)Nc1nc(-c2ccncc2)nc(OCCOc2ncc(Br)cn2)c1-c1ccc(Cl)cc1` [Example 109], the values for the IC50 in experiment [1] and in experiment [2] were 1.94 nM and above 1000 nM, respectively.

`CSc1cnc(OCCOc2nc(-c3ccncc3)nc(NS(=O)(=O)NCc3ccccc3)c2-c2ccc(Cl)cc2)nc1` [Example 110]: the IC50 in experiment [1] was 2.3 nM; in experiment [2], above 1000 nM.

With `COc1cnc(OCCOc2nc(-c3ccncc3)nc(NS(=O)(=O)NCc3ccccc3)c2-c2ccc(Cl)cc2)nc1` [Example 111], the IC50 in experiment [1] was 12.3 nM; in experiment [2] it was 3750 nM.

Consider `O=S(=O)(NCC1CC1)Nc1ncnc(OCCOc2ncc(Br)cn2)c1-c1ccc(Cl)cc1` [Example 112], for which the IC50 in experiment [1] amounted to 0.52 nM; in experiment [2], 257 nM.

`COc1cnc(OCCOc2ncnc(NS(=O)(=O)NCC3CC3)c2-c2ccc(Cl)cc2)nc1` [Example 113]: the IC50 in experiment [1] was 4.26 nM; in experiment [2], 581 nM.

Turning to `O=S(=O)(Nc1ncnc(OCCOc2ncc(Br)cn2)c1-c1ccc(Cl)cc1)NC1CC1` [Example 114], the results for the IC50 in experiment [1] and in experiment [2] were 8.3 nM and above 1000 nM, respectively.

As to `CCNS(=O)(=O)Nc1ncnc(OCCOc2ncc(Br)cn2)c1-c1ccc(Cl)cc1` [Example 115], the IC50 in experiment [1] is 2.2 nM; in experiment [2], above 1000 nM.

Take `CCNS(=O)(=O)Nc1ncnc(OCCOc2ncc(SC)cn2)c1-c1ccc(Cl)cc1` [Example 116]: the IC50 in experiment [1] turned out to be 1.3 nM; in experiment [2], 567 nM.

As to `CCCCNS(=O)(=O)Nc1ncnc(OCCOc2ncc(Br)cn2)c1-c1ccc(Cl)cc1` [Example 117], the IC50 in experiment [1] worked out at 0.45 nM; in experiment [2], 518 nM.

With `CCCCNS(=O)(=O)Nc1ncnc(OCCOc2ncc(SC)cn2)c1-c1ccc(Cl)cc1` [Example 118], the IC50 in experiment [1] was 0.34 nM; in experiment [2], 611 nM.

Turning to `COc1ccccc1Oc1c(NS(=O)(=O)NCC2CC2)nc(-c2ccncc2)nc1OCCOc1ncc(Br)cn1` [Example 123], the IC50 in experiment [1] was found to be 2.9 nM; in experiment [2], 124 nM.

Consider `COc1cnc(OCCOc2nc(-c3ccncc3)nc(NS(=O)(=O)NCC3CC3)c2Oc2ccccc2OC)nc1` [Example 124], for which the values for the IC50 in experiment [1] and in experiment [2] were 7.3 nM and 102 nM, respectively.

Regarding `COc1cnc(OCCOc2nc(-c3ncccn3)nc(NS(=O)(=O)NCC3CC3)c2Oc2ccccc2OC)nc1` [Example 127], the results for the IC50 in experiment [1] and in experiment [2] were 7.3 nM and 87 nM, respectively.

For `COc1ccccc1Oc1c(NS(=O)(=O)NCC2CCCCC2)nc(-c2ccncc2)nc1OCCOc1ncc(Br)cn1` [Example 130], the IC50 in experiment [1] was 3.7 nM; in experiment [2], 347 nM.

On to `COc1cnc(OCCOc2nc(-c3ccncc3)nc(NS(=O)(=O)NCC3CCCCC3)c2Oc2ccccc2OC)nc1` [Example 131], for which the IC50 in experiment [1] stood at 3.2 nM; in experiment [2] it was 233 nM.

On to `COc1cnc(OCCOc2nc(-c3ncccn3)nc(NS(=O)(=O)NCC3CCCCC3)c2Oc2ccccc2OC)nc1` [Example 134], for which the IC50 worked out at 2.4 nM in experiment [1] and 187 nM in experiment [2].

Turning to `COc1ccccc1Oc1c(NS(=O)(=O)NCc2ccc(F)cc2)nc(-c2ncccn2)nc1OCCOc1ncc(Br)cn1` [Example 142], the values for the IC50 in experiment [1] and in experiment [2] were 2.6 nM and 108 nM, respectively.

As to `COc1cnc(OCCOc2nc(-c3ncccn3)nc(NS(=O)(=O)NCc3ccc(F)cc3)c2Oc2ccccc2OC)nc1` [Example 143], the IC50 worked out at 3.1 nM in experiment [1] and 35 nM in experiment [2].

Take `Cc1ccc(-c2c(NS(=O)(=O)NCc3ccc4c(c3)OCO4)ncnc2OCCOc2ncc(Br)cn2)cc1` [Example 145]: the IC50 in experiment [1] is 1.64 nM; in experiment [2], above 1000 nM.

Turning to `COc1cnc(OCCOc2ncnc(NS(=O)(=O)NCc3ccc4c(c3)OCO4)c2-c2ccc(C)cc2)nc1` [Example 146], the IC50 in experiment [1] was 5 nM; in experiment [2], 514 nM.

For the compound `CSc1cnc(OCCOc2ncnc(NS(=O)(=O)NCc3ccc4c(c3)OCO4)c2-c2ccc(C)cc2)nc1` [Example 147], the values for the IC50 in experiment [1] and in experiment [2] were 1.2 nM and 408 nM, respectively.

Take `COc1ccccc1Oc1c(NS(=O)(=O)NCc2ccc3c(c2)OCO3)nc(-c2ccncc2)nc1OC` [Example 149]: the figures for the IC50 in experiment [1] and in experiment [2] were 15 nM and 1320 nM, respectively.

Regarding `COc1ccc(Cl)c(Oc2c(NS(=O)(=O)NCc3ccc4c(c3)OCO4)ncnc2OCCOc2ncc(Br)cn2)c1` [Example 151], the IC50 in experiment [1] was found to be 0.77 nM; in experiment [2], 57 nM.

On to `COc1cnc(OCCOc2ncnc(NS(=O)(=O)NCc3ccc4c(c3)OCO4)c2Oc2cc(OC)ccc2Cl)nc1` [Example 152], for which the IC50 in experiment [1] stood at 1.1 nM; in experiment [2], 79 nM.

As to `COc1ccccc1Oc1c(NS(=O)(=O)NCc2ccccn2)nc(-c2ncccn2)nc1OCCOc1ncc(SC)cn1` [Example 155], the figures for the IC50 in experiment [1] and in experiment [2] were 5.8 nM and 173 nM, respectively.

As for `COc1ccccc1Oc1c(NS(=O)(=O)NCc2ccccn2)nc(-c2ncccn2)nc1OCCOc1ncc(Br)cn1` [Example 156], the IC50 in experiment [1] is 18 nM; in experiment [2], 409 nM.

On to `COc1ccccc1Oc1c(NS(=O)(=O)NCc2ccccn2)nc(-c2ncccn2)nc1OCCOc1nccs1` [Example 157], for which the IC50 is 42.2 nM in experiment [1] and 954 nM in experiment [2].

Turning to `COc1ccccc1Oc1c(NS(=O)(=O)NCc2ccccn2)nc(-c2ccncc2)nc1OCCOc1ncc(SC)cn1` [Example 158], the IC50 in experiment [1] amounted to 10 nM; in experiment [2], 80 nM.

On to `C#CCOc1nc(-c2ccncc2)nc(NS(=O)(=O)NCc2ccc(OC)cc2)c1Oc1ccccc1OC` [Example 160], for which the IC50 in experiment [1] was found to be 11 nM; in experiment [2] it was 3220 nM.
